From article PMC7736581, “Activation of the IRE1 RNase through remodeling of the kinase front pocket by ATP-competitive ligands” (Nature Communications, 2020) come the findings set out here.

Targets include Lyn (Homo sapiens, UniProt P07948); Src (Homo sapiens, UniProt P12931); Syk (Homo sapiens, UniProt P43405).
Holding throughout (experiment): biochemical
Holding throughout (design): Invitrogen kinase panel: Z'Lyte activity (ATP at Km) or LanthaScreen competitive ATP-site binding, percent inhibition

The target of another assay is T1, Brk (Homo sapiens, UniProt Q13882).
T1 construct: gene PTK6
T1 sequence (Q13882 whole entry): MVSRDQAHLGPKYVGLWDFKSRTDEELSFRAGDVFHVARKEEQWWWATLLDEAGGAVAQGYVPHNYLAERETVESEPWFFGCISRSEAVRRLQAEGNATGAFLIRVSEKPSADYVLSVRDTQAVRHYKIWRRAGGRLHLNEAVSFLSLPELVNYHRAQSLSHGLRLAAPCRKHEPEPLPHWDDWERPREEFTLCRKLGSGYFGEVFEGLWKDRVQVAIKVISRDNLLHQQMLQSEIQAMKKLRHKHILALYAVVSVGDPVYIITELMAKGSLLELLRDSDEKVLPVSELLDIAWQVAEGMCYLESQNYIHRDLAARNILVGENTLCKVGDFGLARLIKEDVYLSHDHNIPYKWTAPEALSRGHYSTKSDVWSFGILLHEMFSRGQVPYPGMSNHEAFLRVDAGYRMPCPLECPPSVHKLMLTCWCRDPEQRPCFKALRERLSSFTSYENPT

The target in another assay is T2, IKK_epsilon (Homo sapiens, UniProt Q14164).
T2 construct: gene IKBKE
T2 sequence (Q14164 1-716): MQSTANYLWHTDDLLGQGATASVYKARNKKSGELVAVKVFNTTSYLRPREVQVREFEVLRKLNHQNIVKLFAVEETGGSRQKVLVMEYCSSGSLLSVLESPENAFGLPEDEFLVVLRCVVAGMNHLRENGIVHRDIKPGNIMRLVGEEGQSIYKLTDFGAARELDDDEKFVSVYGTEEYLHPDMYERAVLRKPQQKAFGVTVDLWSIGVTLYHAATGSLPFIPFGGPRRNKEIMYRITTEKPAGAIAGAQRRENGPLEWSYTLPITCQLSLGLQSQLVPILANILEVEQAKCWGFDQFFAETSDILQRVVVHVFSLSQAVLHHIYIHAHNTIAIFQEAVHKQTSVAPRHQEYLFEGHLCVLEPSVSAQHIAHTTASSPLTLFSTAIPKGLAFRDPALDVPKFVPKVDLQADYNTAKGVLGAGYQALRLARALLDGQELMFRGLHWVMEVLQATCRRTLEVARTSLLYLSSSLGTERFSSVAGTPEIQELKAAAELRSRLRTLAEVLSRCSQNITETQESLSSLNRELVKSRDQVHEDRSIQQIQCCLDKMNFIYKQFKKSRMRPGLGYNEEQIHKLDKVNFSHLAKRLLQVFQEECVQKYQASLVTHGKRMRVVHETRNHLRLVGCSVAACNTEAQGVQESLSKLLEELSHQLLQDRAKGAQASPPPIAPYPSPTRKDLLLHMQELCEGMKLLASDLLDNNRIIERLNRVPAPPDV

Another assay concerns the target T3, JNK2 (Homo sapiens, UniProt P45984).
T3 construct: gene MAPK9

The next assay deals with T4, TAK1-TAB1 (Homo sapiens, UniProt O43318).
T4 construct: gene MAP3K7
T4 sequence (O43318 1-606): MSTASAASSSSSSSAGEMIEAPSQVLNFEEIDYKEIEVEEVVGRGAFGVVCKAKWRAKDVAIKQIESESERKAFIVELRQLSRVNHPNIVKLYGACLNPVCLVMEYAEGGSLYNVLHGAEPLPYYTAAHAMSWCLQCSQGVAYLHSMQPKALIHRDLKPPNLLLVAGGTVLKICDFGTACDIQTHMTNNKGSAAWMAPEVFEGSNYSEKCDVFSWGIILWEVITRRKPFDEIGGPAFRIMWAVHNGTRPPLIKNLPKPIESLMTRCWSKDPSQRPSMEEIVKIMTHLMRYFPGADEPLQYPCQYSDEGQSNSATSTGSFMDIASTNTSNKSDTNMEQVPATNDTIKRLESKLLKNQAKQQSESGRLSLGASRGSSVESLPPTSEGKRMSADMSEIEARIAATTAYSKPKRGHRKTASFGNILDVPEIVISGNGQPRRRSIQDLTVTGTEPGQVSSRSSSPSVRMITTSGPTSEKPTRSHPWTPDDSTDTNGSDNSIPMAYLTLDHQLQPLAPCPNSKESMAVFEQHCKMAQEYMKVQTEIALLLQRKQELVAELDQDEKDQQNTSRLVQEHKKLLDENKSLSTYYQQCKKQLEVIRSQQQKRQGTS
T4 sequence (Q15750 1-504 partner): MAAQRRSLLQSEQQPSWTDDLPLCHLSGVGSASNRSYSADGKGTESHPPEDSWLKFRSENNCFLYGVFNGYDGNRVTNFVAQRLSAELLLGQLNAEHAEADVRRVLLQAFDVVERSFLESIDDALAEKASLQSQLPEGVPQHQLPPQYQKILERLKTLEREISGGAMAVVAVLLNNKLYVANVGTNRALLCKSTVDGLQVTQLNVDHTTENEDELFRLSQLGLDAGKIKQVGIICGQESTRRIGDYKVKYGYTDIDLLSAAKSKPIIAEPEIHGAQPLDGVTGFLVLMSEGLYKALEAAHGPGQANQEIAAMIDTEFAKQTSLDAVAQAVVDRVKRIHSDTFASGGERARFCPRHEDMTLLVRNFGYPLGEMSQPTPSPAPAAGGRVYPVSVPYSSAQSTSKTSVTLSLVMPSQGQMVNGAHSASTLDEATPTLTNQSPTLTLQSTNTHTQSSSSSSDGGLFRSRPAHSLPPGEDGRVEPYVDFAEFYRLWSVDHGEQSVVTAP

T3 sequence (P45984 whole entry): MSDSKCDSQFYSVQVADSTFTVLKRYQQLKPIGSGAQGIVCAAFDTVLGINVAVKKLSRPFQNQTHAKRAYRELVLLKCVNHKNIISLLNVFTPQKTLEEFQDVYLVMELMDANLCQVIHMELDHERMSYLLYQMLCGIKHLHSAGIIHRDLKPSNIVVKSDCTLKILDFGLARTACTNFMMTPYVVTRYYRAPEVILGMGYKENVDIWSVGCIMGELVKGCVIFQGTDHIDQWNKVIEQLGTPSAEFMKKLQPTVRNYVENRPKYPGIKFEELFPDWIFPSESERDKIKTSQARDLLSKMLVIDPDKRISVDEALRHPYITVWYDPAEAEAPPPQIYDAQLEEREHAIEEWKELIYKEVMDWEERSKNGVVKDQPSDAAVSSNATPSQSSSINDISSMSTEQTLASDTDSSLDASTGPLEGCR
Sequence of Lyn (P07948 whole entry): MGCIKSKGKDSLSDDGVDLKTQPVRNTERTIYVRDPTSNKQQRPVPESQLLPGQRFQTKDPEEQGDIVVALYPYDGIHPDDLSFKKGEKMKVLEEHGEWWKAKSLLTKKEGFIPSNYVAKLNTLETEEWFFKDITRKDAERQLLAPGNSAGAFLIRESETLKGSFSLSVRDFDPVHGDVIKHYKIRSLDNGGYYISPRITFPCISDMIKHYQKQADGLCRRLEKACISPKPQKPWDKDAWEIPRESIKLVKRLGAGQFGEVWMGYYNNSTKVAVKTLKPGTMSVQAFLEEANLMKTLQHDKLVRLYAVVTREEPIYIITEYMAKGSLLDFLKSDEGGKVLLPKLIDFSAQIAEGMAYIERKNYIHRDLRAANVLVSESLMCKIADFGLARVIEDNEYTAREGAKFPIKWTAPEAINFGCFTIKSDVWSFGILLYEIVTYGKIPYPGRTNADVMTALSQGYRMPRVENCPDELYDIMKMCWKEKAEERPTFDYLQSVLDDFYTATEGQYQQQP
Sequence of Src (P12931 whole entry): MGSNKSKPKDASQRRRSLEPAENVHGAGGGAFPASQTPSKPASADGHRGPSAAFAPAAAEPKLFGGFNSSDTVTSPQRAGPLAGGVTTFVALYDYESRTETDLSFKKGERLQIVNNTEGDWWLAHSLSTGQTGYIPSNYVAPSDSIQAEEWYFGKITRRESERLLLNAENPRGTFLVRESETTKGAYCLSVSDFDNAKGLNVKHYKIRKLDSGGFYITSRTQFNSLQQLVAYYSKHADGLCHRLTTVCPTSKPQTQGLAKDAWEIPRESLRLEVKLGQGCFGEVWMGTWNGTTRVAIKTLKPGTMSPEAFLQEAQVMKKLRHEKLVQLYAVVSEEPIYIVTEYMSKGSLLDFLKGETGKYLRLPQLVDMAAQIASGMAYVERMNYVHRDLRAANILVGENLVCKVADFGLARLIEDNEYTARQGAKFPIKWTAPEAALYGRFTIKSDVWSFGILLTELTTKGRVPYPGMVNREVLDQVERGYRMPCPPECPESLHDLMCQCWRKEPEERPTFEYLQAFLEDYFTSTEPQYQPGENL

As to `CCOC(=O)Nc1cccc2c(Oc3ncccc3-c3ccnc(N[C@H]4CCCNC4)n3)c(C)ccc12` [G-1749], the inhibition at 1 µM was 1.8% at Brk; 4% at IKK_epsilon; 79% at JNK2; 6.5% at Lyn; 28% on Src; -2.5% at Syk. Besides, the inhibition at 1 µM on TAK1-TAB1 stood at 23%.
On to `CC#CC(=O)Nc1cccc2c(Oc3ncccc3-c3ccnc(N[C@H]4CCCNC4)n3)c(C)ccc12` [G-7658], for which the inhibition at 1 µM on Brk is -9%; on IKK_epsilon, 6.5%; on JNK2, 72%; on Lyn it was 13%; at Src it was 22.5%; at Syk, -4.5%. Besides, the inhibition at 1 µM on TAK1-TAB1 is -2.5%.
As for `O=c1cc(-c2n[nH]c3ncc(-c4c(F)cccc4F)cc23)nc(N2CCC(O)CC2)[nH]1` [G-9807], the inhibition at 1 µM on Brk turned out to be 26.8%; on IKK_epsilon, 86.5%; at JNK2, 91.3%; at Lyn it was 87.1%; on Src it was 52.5%; on Syk, 52%. Further, on TAK1-TAB1, the inhibition at 1 µM was 94.3%.

Broadly, the inhibition is the change of the read-out against control, counted positive when it falls.
